In brackets after ≈: the same amount, converted by molar mass.
Assays:
[1] = Cytotoxicity determination; conditions: monkey, Cytotoxicity IC50, VERO cell line, MTT
physchem = conditions: pH 7.4
in vitro = conditions: monkey; for IC50 at 72 h: Cytotoxicity IC50
M. tb H37Rv [2] = conditions: secondary-linked 1 vs tertiary-linked 2; cited from earlier work
[3] = Permeability determination; conditions: PAMPA, pH 7.4
M. tb H37Rv [4] = test: M. tb MIC determination by microbroth dilution; format: cell-based; conditions: Mycobacterium tuberculosis, 168 h, read-out: M. tb MIC
recombinant human sEH = target: T1, recombinant human sEH (Homo sapiens, UniProt P34913); test: Human soluble epoxide hydrolase assay; format: biochemical
T1 sequence (P34913 1-555): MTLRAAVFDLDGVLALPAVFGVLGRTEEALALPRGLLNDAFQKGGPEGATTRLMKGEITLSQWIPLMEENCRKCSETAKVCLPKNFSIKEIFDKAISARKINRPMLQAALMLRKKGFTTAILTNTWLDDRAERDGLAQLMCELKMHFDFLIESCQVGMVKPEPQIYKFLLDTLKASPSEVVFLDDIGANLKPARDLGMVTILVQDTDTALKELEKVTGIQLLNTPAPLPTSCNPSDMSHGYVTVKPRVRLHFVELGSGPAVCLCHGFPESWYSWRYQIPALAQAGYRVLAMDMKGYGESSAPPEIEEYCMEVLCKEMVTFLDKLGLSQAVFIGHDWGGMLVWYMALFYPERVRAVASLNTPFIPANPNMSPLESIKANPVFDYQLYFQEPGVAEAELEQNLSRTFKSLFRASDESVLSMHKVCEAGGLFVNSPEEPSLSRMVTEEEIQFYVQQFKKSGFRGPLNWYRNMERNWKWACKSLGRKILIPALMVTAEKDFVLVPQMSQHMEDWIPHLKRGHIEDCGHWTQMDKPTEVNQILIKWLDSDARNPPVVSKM

O=C(Nc1nnc(C2CC2)o1)NC1C2CC3CC(C2)CC1C3 (stereo not drawn) [Compound 50, 1-(2-adamantyl)-3-(5-cyclopropyl-1,3,4-oxadiazol-2-yl)urea]
IC50 at 72 h [1]: > 100 µg/mL

Cc1nnc(NC(=O)NC23CC4CC(CC(C4)C2)C3)o1 [Compound 36, 1-(1-adamantyl)-3-(5-methyl-1,3,4-oxadiazol-2-yl)urea]
solubility at 18 h (physchem): ~10 µg/mL (≈ 36.2 µM)

Cc1cc(NC(=O)NC2C3CC4CC(C3)CC2C4)no1 (stereo not drawn) [Compound 47, 1-(2-adamantyl)-3-(5-methylisoxazol-3-yl)urea]
solubility at 18 h (physchem): ~25 µg/mL (≈ 90.8 µM)
selectivity ratio at 72 h (in vitro): > 8
IC50 at 72 h (in vitro): > 48 µg/mL

O=C(Nc1ccc(F)c(F)c1F)NC1C2CC3CC(C2)CC1C3 (stereo not drawn) [Compound 1]
Fold more potent than 2 (anti-TB activity) (M. tb H37Rv [2]): 40 fold

CC(C)c1nnc(NC(=O)NC23CC4CC(CC(C4)C2)C3)o1 [Compound 37, 1-(1-adamantyl)-3-(5-isopropyl-1,3,4-oxadiazol-2-yl)urea]
solubility at 18 h (physchem): ~10 µg/mL (≈ 32.9 µM)

CCCSc1ccc2nc(NC(=O)OC)[nH]c2c1 [albendazole]
Papp at 0.5 hr, 50 µM [3]: ~441 ×10⁻⁶ cm/s

CCn1nc(NC(=O)NC2C3CC4CC(C3)CC2C4)cc1C (stereo not drawn) [Compound 52, 1-(2-adamantyl)-3-(1-ethyl-5-methylpyrazol-3-yl)urea]
IC50 at 72 h [1]: > 100 µg/mL

Cc1cc(NC(=O)NC23CC4CC(CC(C4)C2)C3)no1 [Compound 23, 1-(1-adamantyl)-3-(5-methylisoxazol-3-yl)urea]
solubility at 18 h (physchem): ~25 µg/mL (≈ 90.8 µM)

Nc1ccc(S(=O)(=O)c2ccc(NC(=O)NC34CC5CC(CC(C5)C3)C4)cc2)cc1 [Compound 13, 1-(1-adamantyl)-3-(4-((4-aminophenyl)sulfonyl)phenyl)urea]
MIC (M. tb H37Rv [4]): 6.25 µg/mL (≈ 14.7 µM)
IC50 (recombinant human sEH): 0.7 nM
solubility at 18 h (physchem): 0.9 ± 0.1 µg/mL (≈ 2.11 µM)
selectivity ratio at 72 h (in vitro): 23
IC50 at 72 h (in vitro): > 100 µg/mL
